We go through 16 compounds from ChEMBL document CHEMBL4229480, “Terpenoids with vasorelaxant effects from the Chinese liverwort Scapania carinthiaca” (Bioorg Med Chem, 2018).

pEC50, pIC50: −log10 of the molar value. Counter-ions that a name gives are not always drawn. Active and inactive are the calls of the source. The rule behind the calls is not given here.

Data set [1] relates to MCF7. The data set can be described thus: Cytotoxicity against human MCF7 cells after 24 hrs by MTT assay. The format is functional, cell-based. Particulars: MCF7, 24 h. In general terms: Formazan colour is commonly taken as a measure of viable cells.
In data set [2] the test system is A549. Put plainly: Cytotoxicity against human A549 cells after 24 hrs by MTT assay. To be noted: A549, 24 h. The format is functional, cell-based.
Data set [3] has as its system PC-3. The data set can be described thus: Cytotoxicity against human PC3 cells after 24 hrs by MTT assay. Particulars: PC-3, 24 h. The class given is functional, cell-based.
Data set [4] relates to Artery. The data set can be described thus: Vasorelaxant activity in Wistar rat endothelium-denuded 3rd-order mesenteric artery assessed as reduction in norepinephrine-induced vessel contraction by myographic method. The format is functional, tissue-based.
Data set [5] is filed under the species Mus musculus. The data set can be described thus: Vasorelaxant activity in mouse MOVAS1 cells assessed as reduction in KCl-induced increase in intracellular calcium level at 0.1 to 0.5 uM pretreated for 10 mins followed by KCl addition by Fluo-3/AM dye based laser scanning microscopic method. The class given is functional, cell-based. A general note: Calcium assays in cells follow changes in intracellular calcium, usually with a dye or a luminescent sensor.

The species entered for data set [6] is Mus musculus. The data set can be described thus: Vasorelaxant activity in mouse MOVAS1 cells assessed as reduction in KCl-induced increase in intracellular calcium level at 0.1 to 0.5 uM pretreated for 10 mins followed by KCl addition by Fluo-3/AM dye based flow cytometry. The class given is functional, cell-based.
For data set [7], the target named is T1, L-type calcium channel (Mus musculus, UniProt Q01815+Q02789+Q99246+Q9JIS7). The data set can be described thus: Inhibition of voltage-dependent L-type calcium channel in mouse MOVAS cells assessed as reduction in KCl/extracellular Ca2+-induced increase in intracellular calcium level pretreated for 10 mins followed by KCl addition by Fluo-3/AM dye based flow cytometry. The format is cell-based.

The target of data set [8] is T1, L-type calcium channel. Put plainly: Inhibition of voltage-dependent L-type calcium channel in mouse MOVAS cells assessed as reduction in KCl/extracellular Ca2+-induced increase in intracellular calcium level at 0.1 to 0.5 uM pretreated for 10 mins followed by KCl addition by Fluo-3/AM dye based laser scanning microscopic method. The class given is cell-based.
For data set [9], the target named is Voltage-gated L-type calcium channel (Rattus norvegicus, UniProt P22002+Q02485+P27732). Put plainly: Inhibition of voltage-dependent L-type calcium channel in Wistar rat 3rd-order mesenteric artery assessed as reduction in norepinephrine-induced vessel contraction by myographic method. To be noted: for inhibition (INH): rat.

On to `COc1cccc2c1C(=O)c1c(O)c3c(c(O)c1C2=O)C[C@@](O)(C(=O)CO)C[C@@H]3O[C@H]1C[C@H](N)[C@H](O)[C@H](C)O1` [DOXORUBICIN HYDROCHLORIDE], for which the results for the pIC50 in data set [1], in data set [2] and in data set [3] were 6.40, 7.00 and 6.10, respectively.

Consider `CC(C)=CC(=O)C[C@@]1(C)[C@@H]2[C@H]3[C@@H](C)CC[C@]3(O)[C@@H](C)CC[C@@H]21`, for which the pIC50 – broadly, the negative decadic logarithm of the IC50, by convention in mol/L – is 4.82 in [1], 4.68 in [2] and 4.88 in [3].

As for `CC1(C)[C@@H]2[C@@H]3[C@H](CC[C@@]3(C)O)[C@@](C)(O)CC[C@@H]21`, the pIC50 in data set [1], in data set [2] and in data set [3] was less than 4.40 each time.

Regarding `C=C1CC[C@H](C)[C@@](C)(CCC2=CC(OCC)OC2=O)C/C=C\C=C/1C(=O)O` (stereo partly specified), the “%max” value in [4] turned out to be 20%. In addition, the pEC50 (commonly the EC50 on a negative log10 scale, so that one unit is a factor of ten) in data set [4] (Rattus norvegicus, Wistar, Artery) is 4.43. In addition, the result in [5] and in [6] was inactive. Further, the “inhibition (INH)” value in data set [7] was “Dose-dependent effect”; in [8] it was “Active”; in data set [9] it was “Dose-dependent effect”. In addition, the pIC50 in [1], in data set [2] and in data set [3] was less than 4.40 each time. Further, in [9], the EC50 (in general, the concentration giving half of the maximal effect) came to 12 µM.

For `CC1(C)[C@@H]2[C@H]3[C@H](CC[C@@]3(C)O)[C@](O)(CO)CC[C@@H]21`, the pIC50 in data set [1], in [2] and in data set [3] was less than 4.40 each time.

In the case of `C=C1C(=O)[C@@]23C[C@@H]1CC[C@@H]2[C@@]1(C)CCCC(C)(C)[C@@H]1COC3=O`, the pIC50 in data set [1] is 5.18; in data set [2], 5.64; in data set [3] it was 4.94.

For `C=C(C)[C@H]1C[C@H]2C(=C)CCC[C@]2(C)C[C@@H]1O`, the pIC50 in [1], in data set [2] and in [3] was less than 4.40 in each case.

Turning to `C=C1C(=O)O[C@H]2C[C@]3(C)CC[C@H](O)C(C)=C3C[C@@H]12`, the negative logarithm of the IC50 (pIC50) in [1], in data set [2] and in data set [3] was less than 4.40 in each case.

`CCOC1C=C(CC[C@]2(C)[C@@H](C)CC[C@@]3(C)C(C(=O)O)=CCC[C@@H]23)C(=O)O1` (stereo partly specified): the pIC50 in [1], in [2] and in data set [3] was less than 4.40 throughout.

Turning to `C=C1C(=O)O[C@H]2C[C@]3(C)CCC=C(C)[C@H]3C[C@@H]12`, the pIC50 in data set [1], in [2] and in data set [3] was less than 4.40 in each case.

Consider `C[C@H]1CC[C@@]2(C)C(C(=O)O)=CCC[C@H]2[C@]1(C)CCC1=CCOC1=O`, for which the pIC50 in data set [1], in data set [2] and in data set [3] was less than 4.40 each time. The EC50 in data set [9] came out at 7.3 µM. For the same compound, the “inhibition (INH)” value in [9] was “Dose-dependent effect”.

Consider `CC1(C)[C@@H]2[C@@H]3[C@H](CC[C@@]3(C)O)C(=O)CC[C@@H]21`, for which the pIC50 in data set [1], in data set [2] and in [3] was less than 4.40 each time.

Consider `CCOC1C=C(CC[C@]2(C)[C@@H](C)CC[C@@]3(C)C(C(=O)O)=CC=C[C@@H]23)C(=O)O1` (stereo partly specified), for which the pIC50 in [1], in [2] and in data set [3] was less than 4.40 in each case. Besides, the EC50 in [9] amounted to 14 µM. The “inhibition (INH)” value in data set [9] is “Dose-dependent effect”.

For the compound `C=C1CC[C@H](C)[C@@](C)(CCC2=CCOC2=O)C/C=C\C=C/1C(=O)O`, the pIC50 in [1], in data set [2] and in data set [3] was less than 4.40 each time. In data set [9], the EC50 came to 14 µM. Also, in data set [9], the “inhibition (INH)” value was “Dose-dependent effect”.

With `C=C1CC[C@H](C)[C@@](C)(CCC2=CC(O)OC2=O)C/C=C\C=C/1C(=O)O` (stereo partly specified), the negative logarithm of the IC50 (pIC50) in [1], in [2] and in [3] was less than 4.40 in each case. In addition, the EC50 in [9] was 4.1 µM. Also, the “inhibition (INH)” value in [9] is “Dose-dependent effect”.

In the case of `C=C1CC[C@H](C)[C@@](C)(CCC2=CC(OC)OC2=O)C/C=C\C=C/1C(=O)O` (stereo partly specified), the pIC50 in [1], in data set [2] and in data set [3] was less than 4.40 each time. Further, the EC50 in data set [9] was determined as 22 µM. Besides, the “inhibition (INH)” value in [9] was “Dose-dependent effect”.
